Data taken from paper PMC5769417, “Single- and Multiple-Dose Trials to Determine the Pharmacokinetics, Safety, Tolerability, and Sex Effect of Oral Ginsenoside Compound K in Healthy Chinese Volunteers” (Frontiers in Pharmacology, 2018).
Like-named read-outs stand apart in the source and are kept apart here.

Experiment: Multiple-dose trial, plasma pharmacokinetics
Type: in vivo, human
Conditions: for AUC: Day 15, read-out: AUCτ (zero to 24 h); for concentration at 15 day: Day 15, steady state, read-out: Cmin
Description: Multiple-dose pharmacokinetics: […] Multiple-dose pharmacokinetics: […] All samples were preserved at −70°C and analyzed with a LC-MS/MS (API 4000 LC-MS/MS, ABI Company, Foster City, CA, USA) at the Institute of Clinical Pharmacology, Central South University (Changsha, China). […] An aqueous solution of a stable internal standard (IS for CK: digoxin, Shijiaoke Biological Technology Co. Ltd., Beijing, China; IS for PPD: coumarin, Sigma-Aldrich, St. Louis, USA) and 1 M phosphate buffer were added to 0.5 ml of thawed sample, and analytical standards and quality control (QC) samples were prepared in the same matrix. All samples were treated with 2 ml of methyl tert-butyl ether (MTBE, CNW technologies GmbH, Duesseldorf, Germany) to precipitate the bulk of plasma proteins. After mechanical shock by mixing for 10 min and a subsequent centrifugation (4,000 rpm, 4°C, 10 min), 1.4 ml of the supernatant was transferred and blow-dried with nitrogen in a water bath at 40°C. Lastly, the residue was dissolved in 100 μl of mobile phase and then was subjected to a mechanical shock by mixing, and centrifuged. The supernatant was subsequently injected into the column for analysis. […] Accuracy and precision of the assay were determined by evaluating the performance of the assay controls. Over the quantification range, the accuracy of the QC samples varied from 85 to 115% and the intra- and inter-assay imprecision was <15%. […] The area under the curve (AUC) from time zero to the last time point (AUClast) and the AUC extrapolated to infinity (AUCinf) were calculated using the linear trapezoidal rule. The slope (elimination rate constant, K) of the terminal phase of the plasma concentration-time profile was determined, using a weighting factor of 1, by the method of least squares (log-linear regression of at least three data points). The t1/2 was estimated as (ln2)/K. […] The apparent volume of distribution (V/F) was equal to (CL/F)/K. The mean residence time (MRT) was calculated as the area under the first moments curve (AUMC) divided by AUC. The dose-normalized PK parameters e.g., Cmax/D and AUClast/D, were obtained by dividing each PK result by the administered dose. The cumulative excretion rate was calculated as the amount of unchanged drug in the urine over a time interval divided by the dose and was expressed as thousand points (‰). On day 15 in the multiple-dose trial, the PK parameters, such as t1/2, CL/F, and V/F at steady state were calculated using the same method as that used for the single-dose trial. In addition, the Tmax at steady state (Tmax,ss), Cmax at steady state (Cmax,ss), and Cmin,ss were obtained from experimental observation after the steady state during the multiple-dose trial. […] The average steady-state drug concentration (Cavg) is calculated as AUCτ/τ, and the fluctuation ratio was calculated as (Cmax,ss − Cmin,ss)/Cavg. The accumulation index was calculated using dosing interval and elimination rate constant as in the following equation: 1/(1 − e^−Kτ).

[1] = both sexes, human, plasma, 200 mg qd oral after breakfast
[2] = both sexes, human, plasma, 400 mg qd oral after breakfast
[3] = both sexes, human, plasma, po, 100 mg, 100 mg oral after breakfast, Day 1
[4] = both sexes, human, plasma, po, 100 mg, 100 mg qd oral after breakfast, Day 15
[5] = both sexes, human, plasma, po, 200 mg, 200 mg oral after breakfast, Day 1
[6] = both sexes, human, plasma, po, 200 mg, 200 mg qd oral after breakfast, Day 15
[7] = both sexes, human, plasma, po, 400 mg, 400 mg oral after breakfast, Day 1
[8] = both sexes, human, plasma, po, 400 mg, 400 mg qd oral after breakfast, Day 15

CC(C)=CCC[C@](C)(OC1O[C@H](CO)[C@@H](O)[C@H](O)[C@H]1O)[C@H]1CC[C@]2(C)[C@@H]1[C@H](O)C[C@@H]1[C@@]3(C)CC[C@H](O)C(C)(C)[C@@H]3CC[C@]12C (stereo partly drawn) [CK, 20-O-beta-D-glucopyranosyl-20(S)-protopanaxadiol]
AUC [1]: 24700 ± 6290 ng·h/mL
concentration at 15 day [1]: 1030 ± 262 ng/mL
MRT last (both sexes, human, plasma, 400 mg oral after breakfast, Day 1): 12.5 ± 1 h
AUC [2]: 41400 ± 10400 ng·h/mL
concentration at 15 day [2]: 1730 ± 432 ng/mL
half-life (both sexes, human, plasma, oral, 400 mg, Day 1, 100, 200 or 400 mg, read-out: mean t1/2 across the dose groups): 23.4 to 26.1 h
Tmax (both sexes, human, plasma, oral, 400 mg, Day 1, 100, 200 or 400 mg, read-out: median Tmax across the dose groups): 2.5 to 3 h
Tmax (both sexes, human, plasma, oral, Day 1, all subjects, read-out: Tmax, median (range)): 3 h
half-life (both sexes, human, plasma, oral, Day 1, all subjects, read-out: t1/2 (converted)): 24.9 ± 5.8 h
Tmax (both sexes, human, plasma, oral, Day 15, all subjects, read-out: Tmax, median (range)): 3.5 h
half-life (both sexes, human, plasma, oral, Day 15, all subjects, read-out: t1/2 (converted)): 35.3 ± 9.6 h
AUC(0-inf) [3]: 9070 ± 2060 ng·h/mL
AUC(0-t) [3]: 8880 ± 1990 ng·h/mL
MRT inf [3]: 14.6 ± 2.1 h
Cmax (both sexes, human, plasma, po, 100 mg, 100 mg oral after breakfast, Day 1, read-out: Cmax): 1120 ± 411 ng/mL
half-life (both sexes, human, plasma, po, 100 mg, 100 mg oral after breakfast, Day 1, read-out: t1/2 (converted)): 25.2 ± 5.6 h
AUC(0-inf) [4]: 11100 ± 3230 ng·h/mL
AUC(0-t) [4]: 10400 ± 3010 ng·h/mL
MRT inf [4]: 17 ± 2.2 h
Cmax (both sexes, human, plasma, po, 100 mg, 100 mg qd oral after breakfast, Day 15, read-out: Cmax): 934 ± 323 ng/mL
Tmax (both sexes, human, plasma, po, 100 mg, 100 mg qd oral after breakfast, Day 15, read-out: Tmax, median (range)): 3.8 h
half-life (both sexes, human, plasma, po, 100 mg, 100 mg qd oral after breakfast, Day 15, read-out: t1/2 (converted)): 34.6 ± 10.5 h
AUC(0-inf) [5]: 22700 ± 6350 ng·h/mL
AUC(0-t) [5]: 22300 ± 6320 ng·h/mL
MRT inf [5]: 14.9 ± 2 h
Cmax (both sexes, human, plasma, po, 200 mg, 200 mg oral after breakfast, Day 1, read-out: Cmax): 2880 ± 984 ng/mL
Tmax (both sexes, human, plasma, po, 200 mg, 200 mg oral after breakfast, Day 1, read-out: Tmax, median (range)): 3 h
half-life (both sexes, human, plasma, po, 200 mg, 200 mg oral after breakfast, Day 1, read-out: t1/2 (converted)): 23.4 ± 7.9 h
AUC(0-inf) [6]: 34000 ± 9060 ng·h/mL
AUC(0-t) [6]: 31600 ± 8130 ng·h/mL
MRT inf [6]: 16.1 ± 1.6 h
Cmax (both sexes, human, plasma, po, 200 mg, 200 mg qd oral after breakfast, Day 15, read-out: Cmax): 3180 ± 877 ng/mL
Tmax (both sexes, human, plasma, po, 200 mg, 200 mg qd oral after breakfast, Day 15, read-out: Tmax, median (range)): 3.5 h
half-life (both sexes, human, plasma, po, 200 mg, 200 mg qd oral after breakfast, Day 15, read-out: t1/2 (converted)): 37.3 ± 12.3 h
AUC(0-inf) [7]: 44900 ± 11200 ng·h/mL
AUC(0-t) [7]: 43900 ± 11100 ng·h/mL
MRT inf [7]: 15.2 ± 1.5 h
Cmax (both sexes, human, plasma, po, 400 mg, 400 mg oral after breakfast, Day 1, read-out: Cmax): 5060 ± 1650 ng/mL
Tmax (both sexes, human, plasma, po, 400 mg, 400 mg oral after breakfast, Day 1, read-out: Tmax, median (range)): 3 h
half-life (both sexes, human, plasma, po, 400 mg, 400 mg oral after breakfast, Day 1, read-out: t1/2 (converted)): 26.1 ± 3.3 h
AUC(0-inf) [8]: 59200 ± 13300 ng·h/mL
AUC(0-t) [8]: 55200 ± 12800 ng·h/mL
MRT inf [8]: 17.9 ± 1.8 h
Cmax (both sexes, human, plasma, po, 400 mg, 400 mg qd oral after breakfast, Day 15, read-out: Cmax): 5170 ± 1500 ng/mL
half-life (both sexes, human, plasma, po, 400 mg, 400 mg qd oral after breakfast, Day 15, read-out: t1/2 (converted)): 34.2 ± 5.3 h
Tmax (female, human, plasma, oral, Day 1, Female, read-out: Tmax, median (range)): 3 h
half-life (female, human, plasma, oral, Day 1, Female, read-out: t1/2 (converted)): 26.4 ± 6.2 h
Tmax (female, human, plasma, oral, Day 15, Female, read-out: Tmax, median (range)): 3.5 h
half-life (female, human, plasma, oral, Day 15, Female, read-out: t1/2 (converted)): 36.3 ± 1.05 h
Tmax (male, human, plasma, oral, Day 1, Male, read-out: Tmax, median (range)): 3 h
half-life (male, human, plasma, oral, Day 1, Male, read-out: t1/2 (converted)): 23.3 ± 5.2 h
Tmax (male, human, plasma, oral, Day 15, Male, read-out: Tmax, median (range)): 3.5 h
half-life (male, human, plasma, oral, Day 15, Male, read-out: t1/2 (converted)): 34.3 ± 9.8 h
steady state reached (once daily): after the 7th administration
Accumulation index (overall): ~2.66
